For 17 compounds, EC50 results are on record in patent US20090226398A1, “ANTI-VIRAL COMPOUNDS, COMPOSITIONS, AND METHODS OF USE” (Genelabs Technologies, Inc., priority 2008, published 2009).

Each structure is given as a SMILES string.

The assay relates to HCV replication. As to the kind of experiment: Replicon Assay (Huh-lucubineo-ET cells, luciferase readout). Format: cell-based. The conditions noted are these: Hepatitis C virus; ET (Huh-lucubineo-ET) HCV replicon cell line; luciferase activity 48-72 hours after compound addition; 6 dilutions. The essentials: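 Huh-lucubineo-ET cells stably carrying a firefly luciferase-ubiquitin-neo/NS3-5B ET replicon (adaptive mutations E1202G, T1280I, K1846T) were plated 24 h before compound, then treated at 5 or 50 μM or six 3-fold dilutions. Luciferase read 48-72 h later; % inhibition vs no-compound control, EC50/TC50 from Hill-equation fit.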

Broadly, the EC50 is the concentration at which the effect is half-maximal. High values mean weaker potency, low ones greater potency. For `Fc1cc(-c2ccc(C(F)(F)F)cc2C(F)(F)F)ccc1Cn1cc2nc(-c3cccc(F)c3F)nc-2cn1` [Compound 257, 2-(2,3-Difluoro-phenyl)-5-(3-fluoro-2′,4′-bis-trifluoromethyl-biphenyl-4-ylmethyl)-5H-imidazo[4,5-d]pyridazine], the EC50 turned out to be 45 nM.

As for `O=[N+]([O-])c1ccc(-c2ccc(Cn3cc4nc(-c5cccc(F)c5F)nc-4cn3)cn2)c(C(F)(F)F)c1` [Compound 285, 2-(2,3-Difluoro-phenyl)-5-[6-(4-nitro-2-trifluoromethyl-phenyl)-pyridin-3-ylmethyl]-5H-imidazo[4,5-d]pyridazine], the EC50 was 284 nM.

As to `CCCOc1ccc(-c2cnc(Cn3cc4nc(-c5cccc(F)c5F)nc-4cn3)cn2)c(C(F)(F)F)c1` [Compound 295, 2-(2,3-Difluoro-phenyl)-5-[5-(4-propoxy-2-trifluoromethyl-phenyl)-pyrazin-2-ylmethyl]-5H-imidazo[4,5-d]pyridazine], the response was half-maximal at 26 nM (EC50). Against the preceding compound, the EC50 is about 11-fold lower.

`O=C(Nc1ccccc1)c1ccc(Cn2cc3nc(-c4cccc(F)c4F)nc-3cn2)cc1` [Compound 273, 4-[2-(2,3-Difluoro-phenyl)-imidazo[4,5-d]pyridazin-5-ylmethyl]-N-phenyl-benzamide] displayed an EC50 of at least 50000 nM.

Regarding `COc1ccc(-c2ccc(Cn3cc4nc(-c5ccccc5F)nc-4cn3)cn2)c(C(F)(F)F)c1` [Compound 212, 2-(2-Fluoro-phenyl)-5-[6-(4-methoxy-2-trifluoromethyl-phenyl)-pyridin-3-ylmethyl]-5H-imidazo[4,5-d]pyridazine], the concentration giving a half-maximal response (EC50) came to 81 nM. That is a double-digit nanomolar value.

In turn, `Fc1cccc(-c2nc3cnn(Cc4ccc(-c5ccc(OCC6CC6)cc5C(F)(F)F)nn4)cc-3n2)c1F` [Compound 327, 5-[6-(4-Cyclopropylmethoxy-2-trifluoromethyl-phenyl)-pyridazin-3-ylmethyl]-2-(2,3-difluoro-phenyl)-5H-imidazo[4,5-d]pyridazine] displayed an EC50 of 54 nM.

Take `CCCOc1ccc(-c2ncc(Cn3cc4nc(-c5cccc(F)c5F)nc-4cn3)cn2)c(C(F)(F)F)c1` [Compound 363, 2-(2,3-Difluoro-phenyl)-5-[2-(4-propoxy-2-trifluoromethyl-phenyl)-pyrimidin-5-ylmethyl]-5H-imidazo[4,5-d]pyridazine]: it took 5 nM to reach a half-maximal effect (EC50).

Take `COc1ccc(-c2ccc(Cn3cc4nc(-c5cccc(F)c5F)nc-4cn3)cc2C(=O)O)c(C(F)(F)F)c1` [Compound 346, 4-[2-(2,3-Difluoro-phenyl)-imidazo[4,5-d]pyridazin-5-ylmethyl]-4′-methoxy-2′-trifluoromethyl-biphenyl-2-carboxylic acid]: the concentration giving a half-maximal response (EC50) was at least 50000 nM.

`Fc1cccc(-c2nc3cnn(Cc4ccc(-c5ccc(OC(F)(F)F)cc5)cc4)cc-3n2)c1F` [Compound 229, 2-(2,3-Difluoro-phenyl)-5-(4′-trifluoromethoxy-biphenyl-4-ylmethyl)-5H-imidazo[4,5-d]pyridazine]: the EC50 was 8380 nM.

`Fc1cccc(-c2nc3cnn(Cc4ccc(-c5ccc(OC(F)(F)F)cc5)nn4)cc-3n2)c1F` [Compound 119, 2-(2,3-Difluoro-phenyl)-5-[6-(4-trifluoromethoxy-phenyl)-pyridazin-3-ylmethyl]-5H-imidazo[4,5-d]pyridazine] came in with a concentration for a half-maximal effect (EC50) of 3100 nM. Compared with the last compound, the EC50 is about 2.7-fold lower.

As to `COc1ccc(NC(=O)c2ccc(Cn3cc4nc(-c5cccc(F)c5F)nc-4cn3)cc2)cc1` [Compound 274, 4-[2-(2,3-Difluoro-phenyl)-imidazo[4,5-d]pyridazin-5-ylmethyl]-N-(4-methoxy-phenyl)-benzamide], the EC50 is at least 50000 nM.

The compound `Cc1cccc(-c2ccc(Cn3cc4nc(-c5cccc(F)c5F)nc-4cn3)nn2)c1` [Compound 221, 2-(2,3-Difluoro-phenyl)-5-(6-m-tolyl-pyridazin-3-ylmethyl)-5H-imidazo[4,5-d]pyridazine] gave an EC50 of at least 50000 nM.

The compound `CCOc1ccc(-c2ccc(Cn3cc4nc(-c5ccccc5F)nc-4cn3)cn2)c(C(F)(F)F)c1` [Compound 322, 5-[6-(4-Ethoxy-2-trifluoromethyl-phenyl)-pyridin-3-ylmethyl]-2-(2-fluoro-phenyl)-5H-imidazo[4,5-d]pyridazine] had an EC50 of 33 nM.

In turn, `CCCOc1ccc(-c2ncc(Cn3cc4nc(-c5ccccc5F)nc-4cn3)cn2)c(C(F)(F)F)c1` [Compound 362, 2-(2-Fluoro-phenyl)-5-[2-(4-propoxy-2-trifluoromethyl-phenyl)-pyrimidin-5-ylmethyl]-5H-imidazo[4,5-d]pyridazine] registered a half-maximal effective concentration (EC50) of 19 nM. This EC50 lies about 1.7-fold lower than the previous one.

With `Fc1cccc(-c2nc3cnn(Cc4ccc(N5CCOCC5)cc4)cc-3n2)c1F` [Compound 303, 2-(2,3-Difluoro-phenyl)-5-(4-morpholin-4-yl-benzyl)-5H-imidazo[4,5-d]pyridazine], the concentration giving a half-maximal response (EC50) came to 8530 nM.

Turning to `CNc1cccc(-c2nc3cnn(Cc4ccc(-c5ccc(C(F)(F)F)cc5C(F)(F)F)nc4)cc-3n2)c1F` [Compound 339, (3-{5-[6-(2,4-Bis-trifluoromethyl-phenyl)-pyridin-3-ylmethyl]-5H-imidazo[4,5-d]pyridazin-2-yl}-2-fluoro-phenyl)-methyl-amine], it took 14300 nM to reach a half-maximal effect (EC50). This EC50 is about 1.7-fold higher than that of the compound before.

With `Fc1cccc(-c2nc3cnn(Cc4ccc(-c5ccc(OC(F)(F)F)cc5)nc4)cc-3n2)c1F` [Compound 249, 2-(2,3-Difluoro-phenyl)-5-[6-(4-trifluoromethoxy-phenyl)-pyridin-3-ylmethyl]-5H-imidazo[4,5-d]pyridazine], the 50% effective concentration (EC50) is at least 50000 nM.
